Results reported in patent US10399949B2, “NK1 receptor antagonist” (KISSEI PHARMACEUTICAL CO., LTD., priority 2015, dated 2019).

Assays:
human CYP3A4 = biological target: T1, human CYP3A4 (Homo sapiens, UniProt P08684); assay: Inhibitory effect on CYP3A4 (Luciferin-IPA); format: in vitro ADME; conditions: test compound 10 μM, 30-minutes pre-incubation, Luciferin-IPA 3 μM
T1 construct: purchased BD Biosciences
Method: Inhibitory Effect on CYP3A4
The dimethyl sulfoxide (DMSO) solution of the test compound with a concentration 1000 times higher than the evaluation concentration was prepared, and a reaction solution was prepared by diluting the solution. Enzyme reaction was performed by incubating in a potassium phosphate buffer solution (pH 7.4) containing 1 μM to 10 μM test compound, 3.2 mM magnesium chloride, 0.2 pmol human CYP3A4 (BD Biosciences), 0.5 mM reduced nicotinamide adenine dinucleotide phosphate (NADPH) and 3 μM Luciferin-IPA (Promega) at 37° C. for 10 minutes. The volume of the reaction solution was 50 μL/well. The 30-minutes pre-incubation group was incubated at 37° C. for 30 minutes before adding the substrate, the Luciferin-IPA solution (12.5 μL/well). At the end of the enzyme reaction, 50 μL/well of a Luciferin detection reagent (Promega) was added to the wells, and the plate was left at room temperature for 20 minutes. Then, the emission intensities were measured with Infinite M1000 (TECAN), and the enzyme activities (%) relative to the value of the group to which the test compound was not added. As a comparative example, aprepitant, which is an NK1 receptor antagonist, was tested in the same manner.
Test was measured by the above test method, and the results are shown in Table 9 when the concentration of the test compound was 10 μM. In the table, Ex. No. means the Example number, and Pre-incubation (30 min) (%) means the enzyme activities (%) of the 30-minutes pre-incubation groups using the test compounds.

human NK1 receptor [1] = biological target: T2, human NK1 receptor (Homo sapiens, UniProt P25103); assay: Inhibitory effect on human NK1 receptor (substance P-induced increase in intracellular calcium concentration); format: cell-based; conditions: HEK-293T; substance P 0.1 μM; compound 1 μM; human NK1 receptor-expressing 293T cells; vehicle = 100%; read-out: SPRR (%) (Substance P-Response Remaining, intracellular calcium concentration)
T2 construct: expressed in transfected cells; host or cells: 293T cells (RIKEN), transient transfection with pcDNA3.1(-) plasmid
T2 sequence (P25103 whole entry): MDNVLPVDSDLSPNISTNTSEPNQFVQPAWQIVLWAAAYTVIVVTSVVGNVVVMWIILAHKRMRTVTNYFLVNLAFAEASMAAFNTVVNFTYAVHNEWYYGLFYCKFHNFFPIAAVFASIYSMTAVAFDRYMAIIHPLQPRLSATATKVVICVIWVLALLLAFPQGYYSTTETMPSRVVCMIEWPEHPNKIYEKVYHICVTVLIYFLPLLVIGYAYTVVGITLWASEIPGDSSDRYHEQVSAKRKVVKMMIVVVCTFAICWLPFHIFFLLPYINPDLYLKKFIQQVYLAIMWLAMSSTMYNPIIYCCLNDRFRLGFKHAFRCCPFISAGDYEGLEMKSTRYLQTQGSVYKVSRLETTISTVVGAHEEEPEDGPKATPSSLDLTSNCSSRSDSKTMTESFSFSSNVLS
Method: Inhibitory Effect on Human NK1 Receptor
(1) Preparation of Human NK1 Receptor-Expressing Cells
Human NK1 receptor-expressing cells were prepared by the same methods as those described in 2-3 and 2-4 of Test Example 1.
(2) Study on Inhibitory Effect on Increase in Intracellular Calcium Concentration
The human NK1 receptor-expressing cells were washed with 300 μL/well of a washing solution (20 mM HEPES/Hanks Balanced Salt Solution (HBSS) pH7.3). A fluorescent calcium indicator (Fluo-4 Direct Calcium Assay Kit, Life Technologies, containing 0.42 mM probenecid and 0.1% bovine serum albumin, prepared according to the protocol of the product) was added to the wells at 150 μL/well, and the plate was incubated at 37° C. for 30 minutes in an incubator. Then, DMSO solutions of a test compound, which were prepared at an 80-time higher concentration using 100% dimethyl sulfoxide (DMSO), were added to the wells at 2.5 μL/well (final concentrations of 0.1, 1 and 10 μM), and the solutions were mixed. Then, the plate was further incubated at 37° C. for 30 minutes in an incubator. After 30 minutes, the intracellular calcium concentrations were measured immediately.
The intracellular calcium concentrations were each measured as a fluorescent signal using FDSS® 7000 (Hamamatsu Photonics). A substance P (Peptide Institute, Inc.) solution which was prepared at 0.4 μM or 4 μM using an assay buffer (20 mM HEPES/Hanks Balanced Salt Solution (HBSS) pH 7.3 containing 0.1% bovine serum albumin) was added automatically to each well at 50 μL/well (final concentration of 0.1 or 1 μM) 10 seconds after starting reading, and the fluorescent signal was measured up to 120 seconds.
The intracellular calcium concentration (%) of the cells to which a test compound was added was calculated by the equation below, where the fluorescent signal of the group to which the vehicle (DMSO) was added was regarded as 100%, and the fluorescent signal before the addition of substance P was regarded as 0%. Intracellular calcium concentration (%)=(Fluorescent signal of test compound addition group)/(Fluorescent signal of vehicle addition group)×100
The intracellular calcium concentration (%) calculated was regarded as the remaining agonist activity of substance P (Substance P-Response Remaining: SPRR). In the table, Ex. No. means the Example number. SPRR (%) means the value obtained when the concentration of substance P was 0.1 μM and the concentration of the compound was 1 μM.

human NK1 receptor [2] = biological target: T2, human NK1 receptor; assay: Affinity for human NK1 receptor (125I-substance P receptor binding test, membrane fraction); conditions: membrane fraction of human NK1 receptor-expressing 293T cells, room temperature 60 minutes, read-out: pIC50 (inverse logarithm of the concentration required for 50% inhibition of 125I-substance P binding) (converted)
Method: Affinity for Human NK1 Receptor
(3) Measurement of Binding Affinity to Human NK1 Receptor
(3-1) Preparation of Membrane Fraction from Human NK1 Receptor-Expressing Cells
Human NK1 receptor-expressing cells were prepared in a 175 cm^2 culture flask (Nippon Becton Dickinson). The formation of a complex of the human NK1 receptor expression plasmid and Lipofectamine 2000 was performed by calculating the culture area ratio and increasing the scale of the method described in the above 2-4 by the ratio. The human NK1 receptor-expressing cells were collected in a buffer solution for the membrane fraction preparation (50 mM Tris (Wako Pure Chemical), 120 mM sodium chloride (Wako Pure Chemical Industries), 5 mM potassium chloride (Wako Pure Chemical Industries), 1 mM ethylenediaminetetraacetic acid (Sigma), 0.002 mg/mL chymostatin (Peptide Institute), 0.04 mg/bacitracin (Wako Pure Chemical Industries), 0.005 mg/mL phosphoramidon (Peptide Institute) and 0.5 mM phenylmethylsulfonyl fluoride (Wako Pure Chemical Industries), pH7.4) and centrifuged at 1,880 g for 10 minutes, and the cell sediment was suspended in the buffer solution for the membrane fraction preparation. After freezing and thawing the cells once, the cells were homogenized using a Dounce-type homogenizer (cooled on ice, 1000 rpm, 20 times). The homogenized cell suspension was centrifuged at 20,000 rpm for 10 minutes, and the supernatant was removed to obtain cell sediment. The cell sediment was suspended again in the buffer solution for the membrane fraction preparation and homogenized using a Dounce-type homogenizer (cooled on ice, 1000 rpm, 30 times). The cell suspension was centrifuged at 20,000 rpm for 10 minutes, and the supernatant was removed to obtain cell sediment. The same homogenization and centrifugation were repeated again, and final cell sediment was obtained. The final cell sediment was suspended in a buffer solution for the receptor binding test (50 mM Tris (Wako Pure Chemical Industries), 3 mM manganese chloride (Wako Pure Chemical Industries), 0.002 mg/mL chymostatin (Peptide Institute), 0.04 mg/bacitracin (Wako Pure Chemical Industries) and 0.02% bovine serum albumin (Sigma), pH 7.4), and the protein concentration was measured using BCA Protein Assay Kit (Pierce).
(3-2) Receptor Binding Test
The buffer solution for the receptor binding test was dispensed to the wells of a 96-well assay plate (Greiner) at 22.5 μL/well. DMSO solutions of a test compound, which were prepared at an 80-time higher concentration using 100% dimethyl sulfoxide (DMSO), were added to the wells at 2.5 μL/well (final concentrations of 1 nM to 100 nM), and the solutions were mixed. As a radiolabeled ligand, ^125I-substance P (Substance P, [^125I]Tyr^8-, PerkinElmer) was used. ^125I-substance P was diluted with the buffer solution for the receptor binding test to a concentration resulting in […] and added to the 96-well assay plate, and the solutions were mixed. The membrane fraction prepared from the human NK1 receptor-expressing cells was diluted with the buffer solution for the receptor binding test to a concentration resulting in 8 to 10 μg/well, suspended until the suspension became in such a homogenous state that the suspension could flow through a 27G injection needle smoothly and then added to the 96-well assay plate at 150 μL/well. Then, the plate was incubated at room temperature for 60 minutes while shaking the plate. […]

T1 sequence (P08684 whole entry): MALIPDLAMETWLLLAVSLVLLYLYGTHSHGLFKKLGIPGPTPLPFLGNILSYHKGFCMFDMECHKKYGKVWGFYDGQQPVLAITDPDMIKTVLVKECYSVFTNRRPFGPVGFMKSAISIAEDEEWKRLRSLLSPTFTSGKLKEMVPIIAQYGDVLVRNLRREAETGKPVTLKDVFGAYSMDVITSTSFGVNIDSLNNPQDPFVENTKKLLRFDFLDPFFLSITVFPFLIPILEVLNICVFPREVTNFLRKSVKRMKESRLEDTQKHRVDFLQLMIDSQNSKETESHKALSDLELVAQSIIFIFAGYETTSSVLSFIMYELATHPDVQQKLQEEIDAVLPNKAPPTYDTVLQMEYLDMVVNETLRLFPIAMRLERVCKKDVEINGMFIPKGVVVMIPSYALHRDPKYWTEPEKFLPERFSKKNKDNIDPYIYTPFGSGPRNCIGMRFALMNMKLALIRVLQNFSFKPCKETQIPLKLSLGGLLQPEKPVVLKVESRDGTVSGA

Row | Compound | Preincubation (30 min) (%) (enzyme activities relative to group without test compound) (human CYP3A4) | remaining activity at 1 µM (human NK1 receptor [1]) [%] | IC50 (human NK1 receptor [2]) [nM]
1 | Cc1cc(F)ccc1[C@H]1CN(C[C@H]2CC[C@H](CC(=O)O)CC2)CC[C@@H]1C(=O)N(C)[C@@H](C)c1cc(C(F)(F)F)cc(C(F)(F)F)c1 [Example 14, trans-{4-[(3 S,4S)-4-{[(S)-1-(3,5-Bistrifluoromethylphenyl)ethyl]methylcarbamoyl}-3-(4-fluoro-2-methylphenyl)piperidin-1-ylmethyl]cyclohexyl}lacetic acid] | 15 | 14 | 1.35
2 | Cc1cc(F)ccc1[C@H]1CN(C[C@H]2CC[C@@H](CC(=O)O)CC2)CC[C@@H]1C(=O)N(C)[C@@H](C)c1cc(C(F)(F)F)cc(C(F)(F)F)c1 [Example 13, cis-{4-[(3S,4S)-4-{[(S)-1-(3,5-Bistrifluoromethylphenyl)ethyl]methylcarbamoyl}-3-(4-fluoro-2-methylphenyl)piperidin-1-ylmethyl]cyclohexyl}acetic acid] | 18 | 4.1 | 0.646
